Active and inactive are the calls of the source. No cut-off for these calls is given here.
Test system: U373 MG
Assay: Induction of total GPx activity in human U373MG cells assessed as […] per mg protein preincubated at 10 uM for 24 hrs before H2O2 challenge by fluorimetric method (reference value: 58.5 +/- 5.1 nmol/min/mg protein)
Assay type: functional, U-373MG ATCC
Conditions: not given

Row | SMILES | Activity
1 | CC1(C)CCC[C@H]2C1=CC[C@H]1C[C@@](C)([C@@H](O)CO)C[C@@H](O)[C@@]12C [LAGASCATRIOL] | 85.2 nmol/min

Test system: U373 MG
Assay: Induction of SOD activity in human U373MG cells assessed per mg protein preincubated at 5 uM for 24 hrs before H2O2 challenge by fluorimetric method (reference value: 14.2 +/- 3 UI/mg protein)
Assay type: functional, U-373MG ATCC
Conditions: not given

Row | SMILES | Activity
2 | CC1(C)CCC[C@H]2C1=CC[C@H]1C[C@@](C)([C@@H](O)CO)C[C@@H](O)[C@@]12C [LAGASCATRIOL] | 22.8 IU

Test system: U373 MG
Assay: Inhibition of H2O2-induced oxidative stress in human U373MG cells assessed as GSSG level per mg protein at 10 uM by fluorimetric method (reference value: 9.2 +/- 0.9 nmol/mg protein)
Assay type: functional, U-373MG ATCC
Conditions: not given

Row | SMILES | Activity
3 | CC1(C)CCC[C@H]2C1=CC[C@H]1C[C@@](C)([C@@H](O)CO)C[C@@H](O)[C@@]12C [LAGASCATRIOL] | 7 nmol

Test system: U373 MG
Assay: Induction of Glutathione reductase activity in human U373MG cells assessed as […] per mg protein preincubated at 10 uM for 24 hrs before H2O2 challenge by fluorimetric method (reference value: 9.3 +/- 2.2 nmol/min/mg protein)
Assay type: functional, U-373MG ATCC
Conditions: not given

Row | SMILES | Activity
4 | CC1(C)CCC[C@H]2C1=CC[C@H]1C[C@@](C)([C@@H](O)CO)C[C@@H](O)[C@@]12C [LAGASCATRIOL] | 20.6 nmol/min

Target: T1, Nuclear factor erythroid 2-related factor 2 (Homo sapiens) (UniProt Q16236)
T1 sequence (whole entry): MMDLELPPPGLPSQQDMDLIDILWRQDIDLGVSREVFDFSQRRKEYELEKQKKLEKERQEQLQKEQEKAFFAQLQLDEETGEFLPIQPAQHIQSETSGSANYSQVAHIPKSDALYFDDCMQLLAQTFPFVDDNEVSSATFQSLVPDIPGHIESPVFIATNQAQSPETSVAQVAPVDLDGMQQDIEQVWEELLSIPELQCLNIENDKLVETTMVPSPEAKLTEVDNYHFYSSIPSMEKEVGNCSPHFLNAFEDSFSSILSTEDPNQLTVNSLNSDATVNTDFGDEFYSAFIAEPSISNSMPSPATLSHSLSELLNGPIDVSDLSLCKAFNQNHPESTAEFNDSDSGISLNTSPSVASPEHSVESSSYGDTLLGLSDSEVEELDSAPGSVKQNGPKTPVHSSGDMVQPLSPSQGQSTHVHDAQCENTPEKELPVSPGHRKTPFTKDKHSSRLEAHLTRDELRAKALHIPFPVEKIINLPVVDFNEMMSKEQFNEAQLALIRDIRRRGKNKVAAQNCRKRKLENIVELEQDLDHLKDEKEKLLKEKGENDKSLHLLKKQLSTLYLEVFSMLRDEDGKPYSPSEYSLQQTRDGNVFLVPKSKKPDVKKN
Assay: Induction of Nrf2-mediated CAT protein expression in H2O2-stimulated human U373MG cells preincubated at 10 uM for 24 hrs before H2O2 challenge by Western blot method
Assay type: cell-based
Conditions: U-373MG ATCC

Row | SMILES | Activity
5 | CC1(C)CCC[C@H]2C1=CC[C@H]1C[C@@](C)([C@@H](O)CO)C[C@@H](O)[C@@]12C [LAGASCATRIOL] | Active

Test system: U373 MG
Assay: Induction of CAT activity in human U373MG cells assessed per mg protein preincubated at 5 uM for 24 hrs before H2O2 challenge by fluorimetric method (reference value: 18.9 +/- 0.4 UI/mg protein)
Assay type: functional, U-373MG ATCC
Conditions: not given

Row | SMILES | Activity
6 | CC1(C)CCC[C@H]2C1=CC[C@H]1C[C@@](C)([C@@H](O)CO)C[C@@H](O)[C@@]12C [LAGASCATRIOL] | 24.2 IU

Test system: U373 MG
Assay: Induction of HO-1 activity in human U373MG cells assessed as bilirubin production per mg protein preincubated at 10 uM for 24 hrs before H2O2 challenge by fluorimetric method (reference value: 19.6 +/-3.5 pmol/hr/mg protein)
Assay type: functional, U-373MG ATCC
Conditions: not given

Row | SMILES | Activity
7 | CC1(C)CCC[C@H]2C1=CC[C@H]1C[C@@](C)([C@@H](O)CO)C[C@@H](O)[C@@]12C [LAGASCATRIOL] | 32.6 pmol/h

Target: T1, Nuclear factor erythroid 2-related factor 2 (Homo sapiens)
Assay: Induction of Nrf2-mediated SOD protein expression in H2O2-stimulated human U373MG cells preincubated at 10 uM for 24 hrs before H2O2 challenge by Western blot method
Assay type: cell-based
Conditions: U-373MG ATCC

Row | SMILES | Activity
8 | CC1(C)CCC[C@H]2C1=CC[C@H]1C[C@@](C)([C@@H](O)CO)C[C@@H](O)[C@@]12C [LAGASCATRIOL] | Active

Test system: U373 MG
Assay: Inhibition of H2O2-induced oxidative stress in human U373MG cells assessed as GSH level per mg protein at 5 uM by fluorimetric method (reference value: 17.1 +/- 1.7 nmol/mg protein)
Assay type: functional, U-373MG ATCC
Conditions: not given

Row | SMILES | Activity
9 | CC1(C)CCC[C@H]2C1=CC[C@H]1C[C@@](C)([C@@H](O)CO)C[C@@H](O)[C@@]12C [LAGASCATRIOL] | 27.6 nmol

Test system: U373 MG
Assay: Inhibition of H2O2-induced oxidative stress in human U373MG cells assessed as GSH/GSSG ratio at 5 uM (reference value: 1.8 +/- 0.1 )
Assay type: functional, U-373MG ATCC
Conditions: not given

Row | SMILES | Ratio
10 | CC1(C)CCC[C@H]2C1=CC[C@H]1C[C@@](C)([C@@H](O)CO)C[C@@H](O)[C@@]12C [LAGASCATRIOL] | 3.8

Test system: U373 MG
Assay: Inhibition of H2O2-induced oxidative stress in human U373MG cells assessed as GSSG level per mg protein at 5 uM by fluorimetric method (reference value: 9.2 +/- 0.9 nmol/mg protein)
Assay type: functional, U-373MG ATCC
Conditions: not given

Row | SMILES | Activity
11 | CC1(C)CCC[C@H]2C1=CC[C@H]1C[C@@](C)([C@@H](O)CO)C[C@@H](O)[C@@]12C [LAGASCATRIOL] | 7.1 nmol

Test system: U373 MG
Assay: Inhibition of AAPH-induced oxidative stress in human U373MG cells assessed as peroxy radical scavenging activity at 10 uM by ORAC assay
Assay type: functional, cell-based
Conditions: U-373MG ATCC

Row | SMILES | Activity
12 | CC1(C)CCC[C@H]2C1=CC[C@H]1C[C@@](C)([C@@H](O)CO)C[C@@H](O)[C@@]12C [LAGASCATRIOL] | inactive

Test system: U-373MG ATCC
Assay: Antioxidant activity in human U373MG cells assessed as reduction in H2O2-induced morphological changes preincubated at 5 uM for 24 hrs before H2O2 challenge by phase-contrast microscopy
Assay type: functional, cell-based
Conditions: not given

Row | SMILES | Activity
13 | CC1(C)CCC[C@H]2C1=CC[C@H]1C[C@@](C)([C@@H](O)CO)C[C@@H](O)[C@@]12C [LAGASCATRIOL] | Active

Target: T1, Nuclear factor erythroid 2-related factor 2 (Homo sapiens)
Assay: Induction of Nrf2-mediated GPx protein expression in H2O2-stimulated human U373MG cells preincubated at 5 uM for 24 hrs before H2O2 challenge by Western blot method
Assay type: cell-based
Conditions: U-373MG ATCC

Row | SMILES | Activity
14 | CC1(C)CCC[C@H]2C1=CC[C@H]1C[C@@](C)([C@@H](O)CO)C[C@@H](O)[C@@]12C [LAGASCATRIOL] | Active

Target: T1, Nuclear factor erythroid 2-related factor 2 (Homo sapiens)
Assay: Induction of Nrf2-mediated GPx protein expression in H2O2-stimulated human U373MG cells preincubated at 10 uM for 24 hrs before H2O2 challenge by Western blot method
Assay type: cell-based
Conditions: U-373MG ATCC

Row | SMILES | Activity
15 | CC1(C)CCC[C@H]2C1=CC[C@H]1C[C@@](C)([C@@H](O)CO)C[C@@H](O)[C@@]12C [LAGASCATRIOL] | Active

Test system: U373 MG
Assay: Inhibition of H2O2-induced oxidative stress in human U373MG cells assessed as GSH level per mg protein at 10 uM by fluorimetric method (reference value: 17.1 +/- 1.7 nmol/mg protein)
Assay type: functional, U-373MG ATCC
Conditions: not given

Row | SMILES | Activity
16 | CC1(C)CCC[C@H]2C1=CC[C@H]1C[C@@](C)([C@@H](O)CO)C[C@@H](O)[C@@]12C [LAGASCATRIOL] | 30 nmol

Test system: U373 MG
Assay: Induction of selenium-dependent GPx activity in human U373MG cells assessed as […] per mg protein preincubated at 5 uM for 24 hrs before H2O2 challenge by fluorimetric method (reference value: 14.7 +/- 2.9 nmol/min/mg protein)
Assay type: functional, U-373MG ATCC
Conditions: not given

Row | SMILES | Activity
17 | CC1(C)CCC[C@H]2C1=CC[C@H]1C[C@@](C)([C@@H](O)CO)C[C@@H](O)[C@@]12C [LAGASCATRIOL] | 22.8 nmol/min

Test system: U373 MG
Assay: Induction of Nrf2 nuclear protein expression in H2O2-stimulated human U373MG cells preincubated at 10 uM for 24 hrs before H2O2 challenge by Western blot method
Assay type: functional, cell-based
Conditions: U-373MG ATCC

Row | SMILES | Activity
18 | CC1(C)CCC[C@H]2C1=CC[C@H]1C[C@@](C)([C@@H](O)CO)C[C@@H](O)[C@@]12C [LAGASCATRIOL] | Active

Test system: U373 MG
Assay: Induction of Glutathione reductase activity in human U373MG cells assessed as […] per mg protein preincubated at 5 uM for 24 hrs before H2O2 challenge by fluorimetric method (reference value: 9.3 +/- 2.2 nmol/min/mg protein)
Assay type: functional, U-373MG ATCC
Conditions: not given

Row | SMILES | Activity
19 | CC1(C)CCC[C@H]2C1=CC[C@H]1C[C@@](C)([C@@H](O)CO)C[C@@H](O)[C@@]12C [LAGASCATRIOL] | 15.8 nmol/min

Target: T1, Nuclear factor erythroid 2-related factor 2 (Homo sapiens)
Assay: Induction of Nrf2-mediated CAT protein expression in H2O2-stimulated human U373MG cells preincubated at 5 uM for 24 hrs before H2O2 challenge by Western blot method
Assay type: cell-based
Conditions: U-373MG ATCC

Row | SMILES | Activity
20 | CC1(C)CCC[C@H]2C1=CC[C@H]1C[C@@](C)([C@@H](O)CO)C[C@@H](O)[C@@]12C [LAGASCATRIOL] | Active

Test system: U373 MG
Assay: Induction of ROS production in human U373MG cells at 5 uM after 24 hrs by DCFH-DA assay
Assay type: functional, cell-based
Conditions: U-373MG ATCC

Row | SMILES | Activity
21 | CC1(C)CCC[C@H]2C1=CC[C@H]1C[C@@](C)([C@@H](O)CO)C[C@@H](O)[C@@]12C [LAGASCATRIOL] | inactive

Test system: U373 MG
Assay: Induction of selenium-dependent GPx activity in human U373MG cells assessed as […] per mg protein preincubated at 10 uM for 24 hrs before H2O2 challenge by fluorimetric method (reference value: 14.7 +/- 2.9 nmol/min/mg protein)
Assay type: functional, U-373MG ATCC
Conditions: not given

Row | SMILES | Activity
22 | CC1(C)CCC[C@H]2C1=CC[C@H]1C[C@@](C)([C@@H](O)CO)C[C@@H](O)[C@@]12C [LAGASCATRIOL] | 27.1 nmol/min

Test system: not listed separately
Assay: Cytotoxicity against human U373MG cells assessed as LDH release at 1 to 10 uM after 24 hrs by LDH assay
Assay type: cell-based
Conditions: u-373mg atcc

Row | SMILES | Activity
23 | CC1(C)CCC[C@H]2C1=CC[C@H]1C[C@@](C)([C@@H](O)CO)C[C@@H](O)[C@@]12C [LAGASCATRIOL] | < 10%

Test system: not listed separately
Assay: Cytotoxicity against human U373MG cells assessed as dye reduction at 1 to 10 uM after 24 hrs by MTT assay
Assay type: cell-based, U-373MG ATCC
Conditions: read-out: Activity

Row | SMILES | viability at 24 h, up to 10 µM
24 | CC1(C)CCC[C@H]2C1=CC[C@H]1C[C@@](C)([C@@H](O)CO)C[C@@H](O)[C@@]12C [LAGASCATRIOL] | 90%

Target: T1, Nuclear factor erythroid 2-related factor 2 (Homo sapiens)
Assay: Induction of Nrf2-mediated SOD protein expression in H2O2-stimulated human U373MG cells preincubated at 5 uM for 24 hrs before H2O2 challenge by Western blot method
Assay type: cell-based
Conditions: U-373MG ATCC

Row | SMILES | Activity
25 | CC1(C)CCC[C@H]2C1=CC[C@H]1C[C@@](C)([C@@H](O)CO)C[C@@H](O)[C@@]12C [LAGASCATRIOL] | Active

Test system: U373 MG
Assay: Inhibition of H2O2-induced oxidative stress in human U373MG cells assessed as GSH/GSSG ratio at 10 uM (reference value: 1.8 +/- 0.1 )
Assay type: functional, U-373MG ATCC
Conditions: not given

Row | SMILES | Ratio
26 | CC1(C)CCC[C@H]2C1=CC[C@H]1C[C@@](C)([C@@H](O)CO)C[C@@H](O)[C@@]12C [LAGASCATRIOL] | 4.2

Test system: U373 MG
Assay: Induction of ROS production in human U373MG cells at 10 uM after 24 hrs by DCFH-DA assay
Assay type: functional, cell-based
Conditions: U-373MG ATCC

Row | SMILES | Activity
27 | CC1(C)CCC[C@H]2C1=CC[C@H]1C[C@@](C)([C@@H](O)CO)C[C@@H](O)[C@@]12C [LAGASCATRIOL] | inactive
